Here are results for three compounds from BindingDB's records for doi:10.1016/s0960-894x(98)00149-8 (University of Bristol, 1999).

Assay [1] concerns the target N-succinyl-diaminopimelate aminotransferase (Escherichia coli). Nature of the assay: Compound was tested for binding affinity against N-Succinyl Diaminopimelic Acid Aminotransferase from Escherichia coli.
Assay [2] has the same target. Described as above. The source holds these as a separate data set.
Assay [3] has the same target. Kind of assay: Compound was tested for 50% inhibition of N-Succinyl Diaminopimelic Acid Aminotransferase (DAP-AT) from Escherichia coli.

In turn, `NNC(CCC[C@H](NC(=O)CCC(=O)O)C(=O)O)C(=O)O` (stereo partly drawn) [(S)-2-(3-Carboxy-propionylamino)-6-hydrazino-heptanedioic acid] yielded an inhibition constant (Ki) in assay [1] of 0.022 µM. Moreover, in assay [2], the concentration for half-maximal inhibition (IC50) amounted to 0.5 µM.
In assay [1], `CC(=O)N[C@@H](CC(=O)O)C(=O)N[C@@H](CCCC(NN)C(=O)O)C(=O)O` (stereo partly drawn) [(S)-2-((S)-2-Acetylamino-3-carboxy-propionylamino)-6-hydrazino-heptanedioic acid] registered a Ki of 0.169 µM. The IC50 in assay [3] is 0.8 µM.
With `CC(=O)N[C@@H](Cc1ccccc1)C(=O)N[C@@H](CCCC(=O)C(=O)O)C(=O)O` [dilithium 2-[1-methylcarboxamido-2-phenyl-(1S)-ethylcarboxamido]-6-oxo-(2S)-heptanedioate], the half-inhibitory concentration (IC50) in assay [2] is above 50000 µM.

The term Ki denotes a dissociation constant, usually derived from enzyme kinetics or from competition with a known ligand. High values mean weaker binding, low ones tighter binding. The IC50 is the concentration that gives 50% inhibition. A higher IC50 goes with lower potency.
